The results in this text go back to ChEMBL document CHEMBL1909046, “DrugMatrix in vitro pharmacology data”.

One assay concerns the target T1, Glucocorticoid receptor (Homo sapiens, UniProt P04150).
T1 sequence (P04150 whole entry): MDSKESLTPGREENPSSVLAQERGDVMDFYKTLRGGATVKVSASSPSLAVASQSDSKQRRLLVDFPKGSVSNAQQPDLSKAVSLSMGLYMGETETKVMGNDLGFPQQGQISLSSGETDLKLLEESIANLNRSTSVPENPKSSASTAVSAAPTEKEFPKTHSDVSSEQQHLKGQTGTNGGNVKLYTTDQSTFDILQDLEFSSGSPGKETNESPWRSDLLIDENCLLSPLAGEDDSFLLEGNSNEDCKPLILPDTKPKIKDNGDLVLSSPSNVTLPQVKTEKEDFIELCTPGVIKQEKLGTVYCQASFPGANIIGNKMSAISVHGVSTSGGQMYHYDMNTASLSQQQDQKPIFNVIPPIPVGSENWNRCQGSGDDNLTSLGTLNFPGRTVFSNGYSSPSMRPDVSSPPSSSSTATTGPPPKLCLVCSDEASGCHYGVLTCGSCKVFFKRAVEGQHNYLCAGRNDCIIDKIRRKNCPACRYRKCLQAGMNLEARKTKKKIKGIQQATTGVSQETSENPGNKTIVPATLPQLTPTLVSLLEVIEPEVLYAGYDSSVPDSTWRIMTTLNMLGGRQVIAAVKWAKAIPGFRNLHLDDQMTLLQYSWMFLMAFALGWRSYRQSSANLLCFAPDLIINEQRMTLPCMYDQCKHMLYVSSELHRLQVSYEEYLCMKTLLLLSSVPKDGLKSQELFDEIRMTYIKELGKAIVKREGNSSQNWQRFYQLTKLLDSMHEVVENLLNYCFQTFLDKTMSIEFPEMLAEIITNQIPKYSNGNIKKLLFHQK
Description: biochemical.

A further assay addresses Cytochrome P450 3A4 (Homo sapiens, UniProt P08684).

Cytochrome P450 3A4, sequence (P08684 whole entry): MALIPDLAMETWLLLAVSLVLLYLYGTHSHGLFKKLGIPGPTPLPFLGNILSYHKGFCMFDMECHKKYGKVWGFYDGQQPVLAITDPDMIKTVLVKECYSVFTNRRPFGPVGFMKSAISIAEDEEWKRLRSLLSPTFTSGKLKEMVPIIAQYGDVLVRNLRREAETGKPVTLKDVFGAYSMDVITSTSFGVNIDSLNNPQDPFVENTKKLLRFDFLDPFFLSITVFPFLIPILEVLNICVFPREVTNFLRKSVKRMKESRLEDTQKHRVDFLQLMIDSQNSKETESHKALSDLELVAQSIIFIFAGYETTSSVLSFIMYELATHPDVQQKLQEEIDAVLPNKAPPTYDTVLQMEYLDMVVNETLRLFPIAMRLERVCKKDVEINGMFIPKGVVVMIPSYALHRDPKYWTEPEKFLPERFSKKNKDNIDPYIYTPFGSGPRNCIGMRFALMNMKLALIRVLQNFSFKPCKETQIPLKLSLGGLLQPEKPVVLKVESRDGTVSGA

For `Clc1ccccc1C(c1ccccc1)(c1ccccc1)n1ccnc1` [CLOTRIMAZOLE], at Glucocorticoid receptor, the IC50 – broadly, the point on the concentration scale where inhibition reaches its midpoint – was determined as 3260 nM and the Ki (commonly the equilibrium dissociation constant of an inhibitor or competing ligand from its target) was 1480 nM. On the same counts, the results for `CC(=O)S[C@@H]1CC2=CC(=O)CC[C@]2(C)[C@H]2CC[C@@]3(C)[C@@H](CC[C@@]34CCC(=O)O4)[C@H]12` [SPIRONOLACTONE] are 1900 nM and 865 nM. Compound `C=CC[C@@H]1/C=C(\C)C[C@H](C)C[C@H](OC)[C@H]2O[C@@](O)(C(=O)C(=O)N3CCCC[C@H]3C(=O)O[C@H](/C(C)=C/[C@@H]3CC[C@@H](O)[C@H](OC)C3)[C@H](C)[C@@H](O)CC1=O)[C@H](C)C[C@@H]2OC` [TACROLIMUS ANHYDROUS] gave an IC50 on Cytochrome P450 3A4 of 1000 nM.
